Assay results reported in patent US20220389007A1, “INHIBITORS OF HUMAN IMMUNODEFICIENCY VIRUS REPLICATION” (VIIV HEALTHCARE UK (No. 5) LIMITED, priority 2019, published 2022).

Experiments:
recombinant NL4-3 virus = test: HIV cell culture assay (antiviral activity, luciferase readout); assay type: cell-based; conditions: Human immunodeficiency virus 1, NL43, MT2, MT-2 cells infected for 4-5 days with recombinant NL4-3 virus carrying Renilla luciferase
Summary of the method: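 MT-2 cells infected for 4-5 days with NL4-3 reference virus carrying Renilla luciferase in place of part of nef, in presence of serial compound dilutions. Luciferase read with live-cell substrate; EC50 from median effect equation fit.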

[1] = Compound cytotoxicity, XTT-based colorimetric assay; assay type: cell-based; conditions: human; uninfected MT2 cells, day 4, XTT assay
Summary of the method: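 Run under the antiviral-assay protocol but without virus. Viability was read on day 4 and CC50 values were derived from the readout.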

| SMILES | EC50 (recombinant NL4-3 virus) [nM] | CC50 at 4 day [1] [nM] |
| --- | --- | --- |
| Cn1nc(NS(C)(=O)=O)c2c(Cl)ccc(-n3c([C@H](Cc4cc(F)cc(F)c4)NC(=O)Cn4nc(C(F)F)c5c4C(F)(F)[C@@H]4C[C@H]54)nc4nc(-c5csc(C(F)(F)F)n5)ccc4c3=O)c21 (atropisomer, axis not shown; (P)) [Example 4, N-((S)-1-((3P)-3-(4-chloro-1-methyl-3-(methylsulfonamido)-1H-indazol-7-yl)-4-oxo-7-(2-(trifluoromethyl)thiazol-4-yl)-3,4-dihydropyrido[2,3-d]pyrimidin-2-yl)-2-(3,5-difluorophenyl)ethyl)-2-((3bS,4aR)-3-(difluoromethyl)-5,5-difluoro-3b,4,4a,5-tetrahydro-1H-cyclopropa[3,4]cyclopenta[1,2-c]pyrazol-1-yl)acetamide] | 0.055 | > 100 |
| Cc1cc(-c2ccc3c(=O)n(-c4ccc(Cl)c5c(NS(C)(=O)=O)nn(C)c45)c([C@H](Cc4cc(F)cc(F)c4)NC(=O)Cn4nc(C(F)F)c5c4C(F)(F)[C@@H]4C[C@H]54)nc3n2)n(C)n1 (atropisomer, axis not shown; (P)) [Example 70, N-((S)-1-((3P)-3-(4-chloro-1-methyl-3-(methylsulfonamido)-1H-indazol-7-yl)-7-(1,3-dimethyl-1H-pyrazol-5-yl)-4-oxo-3,4-dihydropyrido[2,3-d]pyrimidin-2-yl)-2-(3,5-difluorophenyl)ethyl)-2-((3bS,4aR)-3-(difluoromethyl)-5,5-difluoro-3b,4,4a,5-tetrahydro-1H-cyclopropa[3,4]cyclopenta[1,2-c]pyrazol-1-yl)acetamide] | 0.041 | > 100 |
| Cn1nc(NS(C)(=O)=O)c2c(Cl)ccc(-n3c([C@H](Cc4cc(F)cc(F)c4)NC(=O)Cn4nc(C(F)F)c5c4C(F)(F)[C@@H]4C[C@H]54)nc4nc(-c5cncnc5)ccc4c3=O)c21 (atropisomer, axis not shown; (P)) [Example 55, N-((S)-1-((3P)-3-(4-chloro-1-methyl-3-(methylsulfonamido)-1H-indazol-7-yl)-4-oxo-7-(pyrimidin-5-yl)-3,4-dihydropyrido[2,3-d]pyrimidin-2-yl)-2-(3,5-difluorophenyl)ethyl)-2-((3bS,4aR)-3-(difluoromethyl)-5,5-difluoro-3b,4,4a,5-tetrahydro-1H-cyclopropa[3,4]cyclopenta[1,2-c]pyrazol-1-yl)acetamide] | 0.09 | > 100 |
| Cn1nc(NS(C)(=O)=O)c2c(Cl)ccc(-n3c([C@H](Cc4cc(F)cc(F)c4)NC(=O)Cn4nc(C(F)F)c5c4C(F)(F)[C@@H]4C[C@H]54)nc4nc(-c5cnccn5)ccc4c3=O)c21 (atropisomer, axis not shown; (P)) [Example 8, N-((S)-1-((3P)-3-(4-chloro-1-methyl-3-(methylsulfonamido)-1H-indazol-7-yl)-4-oxo-7-(pyrazin-2-yl)-3,4-dihydropyrido[2,3-d]pyrimidin-2-yl)-2-(3,5-difluorophenyl)ethyl)-2-((3bS,4aR)-3-(difluoromethyl)-5,5-difluoro-3b,4,4a,5-tetrahydro-1H-cyclopropa[3,4]cyclopenta[1,2-c]pyrazol-1-yl)acetamide] | 0.019 | > 100 |
| Cn1nc(NS(C)(=O)=O)c2c(Cl)ccc(-n3c([C@H](Cc4cc(F)cc(F)c4)NC(=O)Cn4nc(C(F)F)c5c4C(F)(F)[C@@H]4C[C@H]54)nc4nc(-c5cc(C(F)(F)F)[nH]n5)ccc4c3=O)c21 (atropisomer, axis not shown; (P)) [Example 90, N-((S)-1-((3P)-3-(4-chloro-1-methyl-3-(methylsulfonamido)-1H-indazol-7-yl)-4-oxo-7-(5-(trifluoromethyl)-1H-pyrazol-3-yl)-3,4-dihydropyrido[2,3-d]pyrimidin-2-yl)-2-(3,5-difluorophenyl)ethyl)-2-((3bS,4aR)-3-(difluoromethyl)-5,5-difluoro-3b,4,4a,5-tetrahydro-1H-cyclopropa[3,4]cyclopenta[1,2-c]pyrazol-1-yl)acetamide] | 0.098 | > 100 |
| Cc1cc(C)nc(-c2ccc3c(=O)n(-c4ccc(Cl)c5c(NS(C)(=O)=O)nn(C)c45)c([C@H](Cc4cc(F)cc(F)c4)NC(=O)Cn4nc(C(F)F)c5c4C(F)(F)[C@@H]4C[C@H]54)nc3n2)n1 (atropisomer, axis not shown; (P)) [Example 11, N-((S)-1-((3P)-3-(4-chloro-1-methyl-3-(methylsulfonamido)-1H-indazol-7-yl)-7-(4,6-dimethylpyrimidin-2-yl)-4-oxo-3,4-dihydropyrido[2,3-d]pyrimidin-2-yl)-2-(3,5-difluorophenyl)ethyl)-2-((3bS,4aR)-3-(difluoromethyl)-5,5-difluoro-3b,4,4a,5-tetrahydro-1H-cyclopropa[3,4]cyclopenta[1,2-c]pyrazol-1-yl)acetamide] | 0.036 | > 100 |
| Cn1nc(NS(C)(=O)=O)c2c(Cl)ccc(-n3c([C@H](Cc4cc(F)cc(F)c4)NC(=O)Cn4nc(C(F)F)c5c4C(F)(F)[C@@H]4C[C@H]54)nc4nc(-c5cccc(C(F)(F)F)c5)ccc4c3=O)c21 (atropisomer, axis not shown; (P)) [Example 24, N-((S)-1-((3P)-3-(4-chloro-1-methyl-3-(methylsulfonamido)-1H-indazol-7-yl)-4-oxo-7-(3-(trifluoromethyl)phenyl)-3,4-dihydropyrido[2,3-d]pyrimidin-2-yl)-2-(3,5-difluorophenyl)ethyl)-2-((3bS,4aR)-3-(difluoromethyl)-5,5-difluoro-3b,4,4a,5-tetrahydro-1H-cyclopropa[3,4]cyclopenta[1,2-c]pyrazol-1-yl)acetamide] | 0.16 | > 100 |
| Cn1nc(NS(C)(=O)=O)c2c(Cl)ccc(-n3c([C@H](Cc4cc(F)cc(F)c4)NC(=O)Cn4nc(C(F)F)c5c4C(F)(F)[C@@H]4C[C@H]54)nc4nc(-c5ccncn5)ccc4c3=O)c21 (atropisomer, axis not shown; (P)) [Example 28, N-((S)-1-((3P)-3-(4-chloro-1-methyl-3-(methylsulfonamido)-1H-indazol-7-yl)-4-oxo-7-(pyrimidin-4-yl)-3,4-dihydropyrido[2,3-d]pyrimidin-2-yl)-2-(3,5-difluorophenyl)ethyl)-2-((3bS,4aR)-3-(difluoromethyl)-5,5-difluoro-3b,4,4a,5-tetrahydro-1H-cyclopropa[3,4]cyclopenta[1,2-c]pyrazol-1-yl)acetamide] | 0.04 | > 100 |
| Cn1nc(NS(C)(=O)=O)c2c(Cl)ccc(-n3c([C@H](Cc4cc(F)cc(F)c4)NC(=O)Cn4nc(C(F)F)c5c4C(F)(F)[C@@H]4C[C@H]54)nc4nc(-c5ccn(CC(F)(F)F)n5)ccc4c3=O)c21 (atropisomer, axis not shown; (P)) [Example 73, N-((S)-1-((3P)-3-(4-chloro-1-methyl-3-(methylsulfonamido)-1H-indazol-7-yl)-4-oxo-7-(1-(2,2,2-trifluoroethyl)-1H-pyrazol-3-yl)-3,4-dihydropyrido[2,3-d]pyrimidin-2-yl)-2-(3,5-difluorophenyl)ethyl)-2-((3bS,4aR)-3-(difluoromethyl)-5,5-difluoro-3b,4,4a,5-tetrahydro-1H-cyclopropa[3,4]cyclopenta[1,2-c]pyrazol-1-yl)acetamide] | 0.029 | > 100 |
